Measured values from patent US20190269614A1, “CHEWABLE TABLET CONTAINING VITAMIN C SODIUM AND PREPARATION METHOD THEREOF” (GUANGXI SANPOTEL HEALTH INDUSTRY CO. LTD, priority 2016, published 2019).

Assay: Lubricant trial: tabletting of vitamin C sodium chewable tablets with different lubricants
Type: physicochemical
Conditions: for Tabletting condition: granules with the named lubricant; for Friability / Hardness: tablets with the named lubricant
Description: During tabletting, in order to increase granule fluidity, and ensure good filling and even distribution of tablet density, a certain amount of lubricant needs to be added to solve the problems of poor granule fluidity and sticking during tabletting. In the experiment of the present application, tabletting conditions when magnesium stearate, micro-powder silica gel, talcum powder, sodium dodecyl sulfate and mannitol were used as the lubricant were compared, and results are shown in Table 3.
From the test results in Table 3, it can be seen that when magnesium stearate, sodium dodecyl sulfate and mannitol are used, fluidity is good and sticking during tabletting is avoided, and prepared tablets have appropriate hardness and smooth and beautiful surfaces; when micro-powder silica gel is added, fluidity is good and sticking during tabletting is avoided, but the hardness of prepared tablets is low; and when talcum powder is added, fluidity is poor and sticking occurs during tabletting, and prepared tablets have large hardness. Therefore, magnesium stearate, sodium dodecyl sulfate and mannitol are selected as the lubricant in the present application.

Row | Molecule | Tabletting condition | Friability [%] | Hardness [N]
1 | OC[C@@H](O)[C@@H](O)[C@H](O)[C@H](O)CO [mannitol] | non-sticking | 0.39 | 54
2 | CCCCCCCCCCCCOS(=O)(=O)[O-].[Na+] [sodium dodecyl sulfate] | non-sticking | 0.42 | 59
3 | magnesium stearate | non-sticking | 0.34 | 49
